Results from ChEMBL document CHEMBL4354830, “Discovery of Benzo[cd]indol-2(1H)-ones and Pyrrolo[4,3,2-de]quinolin-2(1H)-ones as Bromodomain and Extra-Terminal Domain (BET) Inhibitors with Selectivity for the First Bromodomain with Potential High Efficiency against Acute Gouty Arthritis” (J Med Chem, 2019).

What was measured:
[1] = molecular target: T1, Bromodomain-containing protein 4 (Homo sapiens, UniProt O60885); test: Displacement of tetra-acetylated histone H4 peptide (1-21) from recombinant human N-terminal His-tagged BRD4 BD2 (349 to 460 residues) expressed in Escherichia coli incubated for 30 mins followed by further incubation with tetra-acetylated histone H4 peptide (1-21) for 30 mins by Alphascreen assay
[2] = molecular target: T1, Bromodomain-containing protein 4; test: (§1) Displacement of tetra-acetylated histone H4 peptide (1-21) from recombinant human N-terminal His-tagged BRD4 BD1 (44 to 170 residues) expressed in Escherichia coli incubated for 30 mins followed by further incubation with tetra-acetylated histone H4 peptide (1-21) for 30 mins by Alphascreen assay
[3] = molecular target: T1, Bromodomain-containing protein 4; test: Binding affinity to recombinant human N-terminal His-tagged BRD4 BD1 (44 to 170 residues) expressed in Escherichia coli assessed as change in melting temperature at 10 uM by SYPRO Orange based differential scanning fluorimetry
[4] = tested on: RAW264.7; test: Inhibition of LPS-induced NO overproduction in mouse RAW264.7 cells at 1 uM incubated for 2 hrs followed by LPS stimulation and measured after 22 hrs by Griess reagent based assay relative to control; assay type: functional; conditions: for inhibition at 1 µM: Mus musculus, RAW264.7
[5] = molecular target: T1, Bromodomain-containing protein 4; test: as §1, with “coli assessed as protein activity at 2 uM” for “coli”

Structure (SMILES): O=C1Nc2ccc(NS(=O)(=O)c3ccc(Cl)cc3)c3cccc1c23
- IC50 [1]: 15500 nM
- IC50 [2]: 769 nM
- ΔTm [3]: 3.73 °C

Structure (SMILES): COc1ccccc1S(=O)(=O)Nc1ccc2c3c(cc(-c4cnn(C5CC5)c4)cc13)C(=O)N2C
- inhibition at 1 µM [4]: 83.7%
- IC50 [1]: 238 nM
- IC50 [2]: 14.4 nM

Structure (SMILES): CN1C(=O)c2ccnc3c(NS(=O)(=O)c4ccc(Cl)cc4)ccc1c23
- IC50 [1]: 20500 nM
- IC50 [2]: 3470 nM
- ΔTm [3]: 6.53 °C

Structure (SMILES): Cc1cc(/N=N/c2ccc(S(=O)(=O)Nc3ccc(C#N)cc3)cc2)cc(C)c1O
- inhibition at 1 µM [4]: 43.4%
- IC50 [1]: 7070 nM
- IC50 [2]: 328 nM

Structure (SMILES): CN1C(=O)c2cccc3c(NS(=O)(=O)c4c(F)cccc4F)ccc1c23
- IC50 [2]: 9070 nM
- ΔTm [3]: 3.73 °C

Structure (SMILES): COc1ccccc1S(=O)(=O)Nc1ccc2c3c(cc(NC4CC4)nc13)C(=O)N2C
- IC50 [1]: 660 nM
- IC50 [2]: 271 nM

Structure (SMILES): COc1ccccc1S(=O)(=O)Nc1ccc2c3c(cc(N[C@H](C)c4ccccn4)nc13)C(=O)N2C
- IC50 [2]: 2230 nM

Structure (SMILES): CN1CCN(c2cc3c4c(ccc(NS(=O)(=O)c5ccc(Cl)cc5)c4n2)N(C)C3=O)CC1
- IC50 [2]: 391 nM

Structure (SMILES): CCOC(=O)CC1CCN(c2cc3c4c(ccc(NS(=O)(=O)c5ccccc5OC)c4n2)N(C)C3=O)CC1
- IC50 [2]: 709 nM

Structure (SMILES): CN1C(=O)c2cccc3c(NS(=O)(=O)c4cccc5cccnc45)ccc1c23
- IC50 [1]: 260 nM
- IC50 [2]: 329 nM
- ΔTm [3]: 4.13 °C

Structure (SMILES): CN1C(=O)c2cccc3c(NS(=O)(=O)c4c(Cl)cccc4Cl)ccc1c23
- Activity [5]: 91.1%
- ΔTm [3]: 2.75 °C

Structure (SMILES): COc1ccccc1S(=O)(=O)Nc1ccc2c3c(cc(NCCN4CCN(C)CC4)nc13)C(=O)N2C
- inhibition at 1 µM [4]: 39.6%
- IC50 [1]: 1520 nM
- IC50 [2]: 223 nM

Structure (SMILES): COc1ccccc1S(=O)(=O)N(C)c1ccc2c3c(cccc13)C(=O)N2C
- Activity [5]: 90.4%
- ΔTm [3]: 1.06 °C

Structure (SMILES): CN1C(=O)c2ccnc3c(NS(=O)(=O)c4ccc(Cl)cc4F)ccc1c23
- Activity [5]: 87.4%
- ΔTm [3]: 2.31 °C

Structure (SMILES): COc1ccccc1S(=O)(=O)Nc1ccc2c3c(cc(NCC4CCOCC4)nc13)C(=O)N2C
- IC50 [2]: 503 nM

Structure (SMILES): Cc1ccccc1S(=O)(=O)Nc1ccc2c3c(cccc13)C(=O)N2C
- IC50 [2]: 709 nM
- ΔTm [3]: 5.1 °C

Structure (SMILES): CN1C(=O)c2cccc3c(NS(=O)(=O)c4ccc(F)cc4Cl)ccc1c23
- inhibition at 1 µM [4]: 98.1%
- IC50 [1]: 3830 nM
- IC50 [2]: 91.3 nM
- ΔTm [3]: 6.23 °C

Structure (SMILES): COc1ccccc1S(=O)(=O)Nc1ccc2c3c(cc(-c4cnn(C5CC5)c4)nc13)C(=O)N2C
- IC50 [1]: 107 nM
- IC50 [2]: 16.6 nM

Structure (SMILES): CN1C(=O)c2cccc3c(NS(=O)(=O)c4cccs4)ccc1c23
- IC50 [2]: 3720 nM
- ΔTm [3]: 4.02 °C

Structure (SMILES): CN1C(=O)c2cccc3c(NS(=O)(=O)c4ccc(Cl)cc4)ccc1c23
- inhibition at 1 µM [4]: 15.1%
- IC50 [1]: 2720 nM
- IC50 [2]: 167 nM
- ΔTm [3]: 6.5 °C

Structure (SMILES): COc1ccccc1S(=O)(=O)Nc1ccc2c3c(cc(-c4cnn(C)c4)cc13)C(=O)N2C
- inhibition at 1 µM [4]: 102%
- IC50 [1]: 435 nM
- IC50 [2]: 17.4 nM

Structure (SMILES): COc1ccccc1S(=O)(=O)Nc1ccc2c3c(cc(N4CCN(C)CC4)nc13)C(=O)N2C
- inhibition at 1 µM [4]: 92.5%
- IC50 [1]: 2120 nM
- IC50 [2]: 100 nM

Structure (SMILES): Cc1ccccc1NS(=O)(=O)c1ccc2c3c(cccc13)C(=O)N2C
- IC50 [2]: 15500 nM
- ΔTm [3]: 2.23 °C

Structure (SMILES): COc1ccccc1S(=O)(=O)Nc1ccc2c3c(cc(-c4cnn(Cc5ccccc5)c4)cc13)C(=O)N2C
- IC50 [2]: 205 nM

Structure (SMILES): COc1ccccc1S(=O)(=O)Nc1ccc2c3c(cc(NCC4CCN(C)CC4)nc13)C(=O)N2C
- inhibition at 1 µM [4]: 47.2%
- IC50 [1]: 1280 nM
- IC50 [2]: 113 nM

Structure (SMILES): CN1C(=O)c2cccc3c(NS(=O)(=O)c4ccccc4Cl)ccc1c23
- IC50 [1]: 6050 nM
- IC50 [2]: 1530 nM
- ΔTm [3]: 5.37 °C

Structure (SMILES): COc1ccccc1S(=O)(=O)Nc1ccc2c3c(cc(NCCN4CCCCC4)nc13)C(=O)N2C
- IC50 [1]: 7070 nM
- IC50 [2]: 328 nM

Structure (SMILES): COc1cc(OC)c2c(=O)[nH]c(-c3cc(C)c(OCCO)c(C)c3)nc2c1 [APABETALONE]
- inhibition at 1 µM [4]: 9.17%

Structure (SMILES): COc1ccccc1S(=O)(=O)Nc1ccc2c3c(cc(N4CCC(CO)CC4)nc13)C(=O)N2C
- IC50 [1]: 29600 nM
- IC50 [2]: 169 nM

Structure (SMILES): CN1C(=O)c2cccc3c(NS(=O)(=O)c4cccnc4)ccc1c23
- IC50 [1]: 13700 nM
- IC50 [2]: 2440 nM
- ΔTm [3]: 2.3 °C

Structure (SMILES): CN1C(=O)c2cc(-c3cnn(C4CC4)c3)cc3c(NS(=O)(=O)c4ccc(Cl)cc4)ccc1c23
- IC50 [2]: 666 nM

Structure (SMILES): CN1C(=O)c2cccc3c(NS(=O)(=O)c4ccccc4OC(F)(F)F)ccc1c23
- IC50 [2]: 3890 nM
- ΔTm [3]: 4.73 °C

Structure (SMILES): CN1C(=O)c2cc(-c3cnn(C)c3)cc3c(NS(=O)(=O)c4ccc(Cl)cc4)ccc1c23
- IC50 [2]: 348 nM

Structure (SMILES): Cc1cc(F)ccc1S(=O)(=O)Nc1ccc2c3c(cccc13)C(=O)N2C
- IC50 [2]: 810 nM
- ΔTm [3]: 4.32 °C

Structure (SMILES): CN1C(=O)c2cc(Cl)nc3c(NS(=O)(=O)c4ccc(Cl)cc4)ccc1c23
- IC50 [2]: 2600 nM

Structure (SMILES): COc1ccccc1S(=O)(=O)Nc1ccc2c3c(cc(-c4ccoc4)cc13)C(=O)N2C
- IC50 [2]: 164 nM

Structure (SMILES): COc1ccccc1S(=O)(=O)Nc1ccc2c3c(cc(-c4ccco4)nc13)C(=O)N2C
- inhibition at 1 µM [4]: 64.9%
- IC50 [1]: 982 nM
- IC50 [2]: 35.1 nM

Structure (SMILES): CN1C(=O)c2cc(-c3cnn(C4CC4)c3)cc3c(NS(=O)(=O)c4ccc(Cl)cc4F)ccc1c23
- Activity [5]: 65.2%

Structure (SMILES): COc1ccccc1S(=O)(=O)Nc1ccc2c3c(cccc13)C(=O)N2C
- inhibition at 1 µM [4]: 51.4%
- IC50 [1]: 2480 nM
- IC50 [2]: 49.5 nM
- ΔTm [3]: 8.72 °C

Structure (SMILES): COc1ccccc1S(=O)(=O)Nc1ccc2c3c(cc(Cl)nc13)C(=O)N2C
- IC50 [2]: 656 nM

Structure (SMILES): CN1C(=O)c2cccc3c(NS(=O)(=O)c4cccc(Cl)c4F)ccc1c23
- IC50 [2]: 1700 nM
- ΔTm [3]: 4.83 °C

Structure (SMILES): COc1ccccc1S(=O)(=O)Nc1ccc2c3c(cc(-c4cnn(C)c4)nc13)C(=O)N2C
- IC50 [1]: 289 nM
- IC50 [2]: 12.6 nM

Structure (SMILES): COc1cc(Cl)ccc1S(=O)(=O)Nc1ccc2c3c(cccc13)C(=O)N2C
- IC50 [1]: 3470 nM
- IC50 [2]: 299 nM
- ΔTm [3]: 7.1 °C

Structure (SMILES): CN1C(=O)c2cc(N3CCOCC3)nc3c(NS(=O)(=O)c4ccc(Cl)cc4)ccc1c23
- IC50 [2]: 217 nM

Structure (SMILES): COc1ccccc1S(=O)(=O)Nc1ccc2c3c(ccnc13)C(=O)N2C
- inhibition at 1 µM [4]: 94.3%
- IC50 [1]: 4600 nM
- IC50 [2]: 205 nM
- ΔTm [3]: 7.64 °C

Structure (SMILES): CCCn1cc(-c2cc3c4c(ccc(NS(=O)(=O)c5ccccc5OC)c4c2)N(C)C3=O)cn1
- inhibition at 1 µM [4]: 106%
- IC50 [1]: 266 nM
- IC50 [2]: 43.7 nM

Structure (SMILES): CN1C(=O)c2cc(-c3cnn(C4CC4)c3)cc3c(NS(=O)(=O)c4ccc(Cl)cc4Cl)ccc1c23
- Activity [5]: 61.8%

Structure (SMILES): CN1C(=O)c2cc(-c3ccoc3)cc3c(NS(=O)(=O)c4ccc(Cl)cc4)ccc1c23
- Activity [5]: 56.6%

Structure (SMILES): COc1cc(Cl)ccc1S(=O)(=O)Nc1ccc2c3c(cc(-c4cnn(C5CC5)c4)cc13)C(=O)N2C
- IC50 [1]: 435 nM
- IC50 [2]: 37.5 nM

Structure (SMILES): Cc1ccc(S(=O)(=O)Nc2ccc3c4c(ccnc24)C(=O)N3C)cc1
- IC50 [1]: 6620 nM
- IC50 [2]: 1570 nM
- ΔTm [3]: 5.12 °C

Structure (SMILES): COc1ccccc1S(=O)(=O)Nc1ccc2c3c(cc(N4CCOCC4)nc13)C(=O)N2C
- inhibition at 1 µM [4]: 100%
- IC50 [1]: 808 nM
- IC50 [2]: 95.2 nM

Structure (SMILES): CCCn1cc(-c2cc3c4c(ccc(NS(=O)(=O)c5ccc(Cl)cc5OC)c4c2)N(C)C3=O)cn1
- IC50 [1]: 320 nM
- IC50 [2]: 107 nM

Structure (SMILES): Cc1ccc(S(=O)(=O)Nc2ccc3c4c(cccc24)C(=O)N3C)cc1
- IC50 [1]: 2280 nM
- IC50 [2]: 545 nM
- ΔTm [3]: 7.36 °C

Structure (SMILES): COc1ccc(Cl)cc1S(=O)(=O)Nc1ccc2c3c(cc(-c4cnn(C5CC5)c4)cc13)C(=O)N2C
- Activity [5]: 64.9%

Structure (SMILES): COc1ccccc1S(=O)(=O)Nc1ccc2c3c(cc(-c4ccoc4)nc13)C(=O)N2C
- inhibition at 1 µM [4]: 66.3%
- IC50 [1]: 459 nM
- IC50 [2]: 37 nM

Structure (SMILES): COc1ccccc1S(=O)(=O)Nc1ccc2c3c(cc(NC(C)(C)C)nc13)C(=O)N2C
- IC50 [1]: 2080 nM
- IC50 [2]: 573 nM

Structure (SMILES): COc1ccccc1S(=O)(=O)Nc1ccc2c3c(cc(N4CCN(C(=O)OC(C)(C)C)CC4)nc13)C(=O)N2C
- IC50 [1]: 2170 nM
- IC50 [2]: 334 nM

Structure (SMILES): CCN1C(=O)c2cccc3c(NS(=O)(=O)c4ccc(Cl)cc4)ccc1c23
- IC50 [1]: 2720 nM
- IC50 [2]: 237 nM
- ΔTm [3]: 6.36 °C

Structure (SMILES): COc1ccccc1S(=O)(=O)Nc1ccc2c3c(cc(-n4ccnc4)nc13)C(=O)N2C
- IC50 [1]: 4110 nM
- IC50 [2]: 889 nM

Structure (SMILES): Cc1sc2c(c1C)C(c1ccc(Cl)cc1)=N[C@@H](CC(=O)OC(C)(C)C)c1nnc(C)n1-2
- inhibition (INH) [4]: 47.56%
